Experimental data: patent publication US20180339976A1, “NOVEL TRIAZOLE DERIVATIVES” (priority 2015, published 2018)

Assay: Log P by HPLC on reversed phase columns (EEC directive 79/831 Annex V.A8)
Type: physicochemical
Conditions: not given
Method: Measurement of Log P values was performed according to EEC directive 79/831 Annex V.A8 by HPLC (High Performance Liquid Chromatography) on reversed phase columns with the following methods: • ^[a]
If more than one Log P value is available within the same method, all the values are given and separated by “+”.
Lambda-max-values were determined using UV-spectra from 200 nm to 400 nm and the peak values of the chromatographic signals.

Row | SMILES | LogP | chromatographic logP
1 | OC(Cc1cc(Cl)ncc1F)(Cn1cncn1)c1ccccc1 (centres unmarked) [Example I-48] | 1.86^[a] | 
2 | Fc1cc(Cl)ccc1C1(Cc2cccnc2Cl)CO1 (centres unmarked) [XII-1, 2-chloro-3-[[2-(4-chloro-2-fluoro-phenyl)oxiran-2-yl]methyl]pyridine] |  | 3.31
3 | OC(Cc1cc(Cl)ncc1F)(Cn1cncn1)c1ccc(F)cc1F (centres unmarked) [Example I-45] | 2.13^[a] | 
4 | OC(Cc1ccncc1Cl)(Cn1cncn1)c1ccc(F)cc1F (centres unmarked) [Example I-30] | 1.76^[a] | 
5 | OC(Cc1ccnc(Cl)c1F)(Cn1cncn1)c1ccc(Cl)cc1 (centres unmarked) [Example I-10] | 2.23^[a] | 
6 | OC(Cc1cc(F)ncc1Cl)(Cn1cncn1)c1ccccc1 (centres unmarked) [Example I-14] | 2.02^[a] | 
7 | OC(Cc1ccncc1F)(Cn1cncn1)c1ccc(F)cc1F (centres unmarked) [Example I-43] | 1.47^[a] | 
8 | OC(Cc1ccnc(Cl)c1F)(Cn1cncn1)c1ccc(F)cc1F (single isomer, unassigned) [Example I-55] | 2.21^[a] | 

Same assay, conditions: Table 1, formula (I); method [a]: LC-UV, acidic range, 0.1% formic acid in water and acetonitrile

Row | SMILES | LogP
9 | OC(Cc1ccnc(Cl)c1)(Cn1cncn1)c1ccc(-c2ccccc2)cc1 (centres unmarked) [Example I-39] | 2.57^[a]
10 | OC(Cc1cc(F)ncc1Cl)(Cn1cncn1)c1ccc(-c2ccccc2)cc1 (centres unmarked) [Example I-27] | 3.02^[a]

Same assay, conditions: Table 2, epoxides of formula (XII); method [a]: LC-UV, acidic range, 0.1% formic acid in water and acetonitrile

Row | SMILES | LogP
11 | Fc1cnc(Cl)cc1CC1(c2ccc(Oc3ccccc3)cc2)CO1 (centres unmarked) [XII-18] | 4.23^[a]
12 | Fc1ccc(C2(Cc3ccncc3Cl)CO2)cc1 (centres unmarked) [XII-27] | 2.65^[a]
13 | Fc1ccc(C2(Cc3ccncc3F)CO2)c(F)c1 (centres unmarked) [XII-6] | 2.38^[a]
14 | Clc1cncc(Cl)c1CC1(c2ccc(Oc3ccccc3)cc2)CO1 (racemic) [XII-51] | 4.76^[a]
15 | Clc1cnccc1CC1(c2cccc(Cl)c2Cl)CO1 (racemic) [XII-61] | 3.53^[a]
16 | Cc1cc(C)c(C2(Cc3ccncc3Cl)CO2)c(C)c1 (racemic) [XII-60] | 4.15^[a]
17 | Fc1cnc(Cl)cc1CC1(c2ccc(-c3ccccc3)cc2)CO1 (centres unmarked) [XII-22] | 4.28^[a]
18 | Fc1cc(CC2(c3ccc(Oc4ccccc4)cc3)CO2)c(Cl)cn1 (racemic) [XII-40] | 4.57^[a]
19 | Clc1cnccc1CC1(c2c(Cl)cccc2Cl)CO1 (racemic) [XII-62] | 3.02^[a]
20 | Clc1cnccc1CC1(c2ccc(Oc3ccccc3)cc2)CO1 (centres unmarked) [XII-32] | 3.80^[a]
21 | Fc1cc(CC2(c3ccc(Cl)cc3Cl)CO2)c(Cl)cn1 (racemic) [XII-36] | 4.45^[a]
22 | Fc1ccc(Oc2ccc(C3(Cc4ccnc(Cl)c4)CO3)cc2)c(F)c1 (centres unmarked) [XII-12] | 3.85^[a]
23 | Fc1ccc(Oc2ccc(C3(Cc4ccncc4Cl)CO3)cc2)c(F)c1 (centres unmarked) [XII-33] | 3.80^[a]
24 | Clc1ccccc1C1(Cc2c(Cl)cncc2Cl)CO1 (racemic) [XII-59] | 4.04^[a]
25 | Clc1ccccc1COc1cccc(C2(Cc3ccncc3Cl)CO2)c1 (racemic) [XII-63] | 4.30^[a]
26 | Fc1c(CC2(c3ccc(Cl)cc3Cl)CO2)ccnc1Cl (racemic) [XII-46] | 3.02^[a]
27 | Fc1cnccc1CC1(c2ccc(-c3ccccc3)cc2)CO1 (centres unmarked) [XII-8] | 3.37^[a]
28 | Fc1c(CC2(c3ccccc3Cl)CO2)ccnc1Cl (racemic) [XII-49] | 3.47^[a]
29 | Clc1cccc(C2(Cc3cccnc3Cl)CO2)c1 (centres unmarked) [XII-23] | 3.24^[a]
30 | Clc1ccc(C2(Cc3ccncc3Cl)CO2)c(Cl)c1 (centres unmarked) [XII-31] | 3.06^[a]
31 | Fc1ccc(Oc2ccc(C3(Cc4ccnc(Cl)c4F)CO3)cc2)c(F)c1 (racemic) [XII-44] | 4.20^[a]
32 | Fc1c(CC2(c3ccc(Cl)cc3)CO2)ccnc1Cl (racemic) [XII-43] | 3.58^[a]
